Data from ChEMBL document CHEMBL1201862, “PubChem BioAssay data set” (2004).
Calls of active or inactive are those of the source.

How the values were obtained:
Protein RecA = biological target: T1, Protein RecA (Mycobacterium tuberculosis, UniProt P9WHJ3); test: Fluorescence Cell-Free Homogeneous Dose Retest to Identify Inhibitors of RecA-Intein Splicing Activity. [Related pubchem assays (depositor defined):AID2097, AID2223, AID489010, AID492950]; format: functional
T1 sequence (P9WHJ3 whole entry): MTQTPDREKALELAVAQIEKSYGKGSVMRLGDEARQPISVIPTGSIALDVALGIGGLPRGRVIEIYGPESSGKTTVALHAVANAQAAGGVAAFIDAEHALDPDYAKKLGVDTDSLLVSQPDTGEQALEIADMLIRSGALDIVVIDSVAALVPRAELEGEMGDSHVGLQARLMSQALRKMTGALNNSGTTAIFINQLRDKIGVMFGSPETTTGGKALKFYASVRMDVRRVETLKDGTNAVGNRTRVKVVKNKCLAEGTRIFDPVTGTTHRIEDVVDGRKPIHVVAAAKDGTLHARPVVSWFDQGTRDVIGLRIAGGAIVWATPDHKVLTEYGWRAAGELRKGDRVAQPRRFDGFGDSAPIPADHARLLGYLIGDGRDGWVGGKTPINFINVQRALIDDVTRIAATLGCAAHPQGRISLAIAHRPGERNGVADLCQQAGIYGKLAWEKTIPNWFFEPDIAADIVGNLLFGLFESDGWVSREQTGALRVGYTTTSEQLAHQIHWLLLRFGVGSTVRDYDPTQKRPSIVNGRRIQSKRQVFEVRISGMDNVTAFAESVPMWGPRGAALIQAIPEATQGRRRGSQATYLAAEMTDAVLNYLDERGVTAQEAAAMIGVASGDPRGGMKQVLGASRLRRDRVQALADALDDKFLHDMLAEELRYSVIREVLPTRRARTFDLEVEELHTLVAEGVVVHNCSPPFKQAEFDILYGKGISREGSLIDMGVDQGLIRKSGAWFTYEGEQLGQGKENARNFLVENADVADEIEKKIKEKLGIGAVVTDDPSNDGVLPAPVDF

[1] = biological target: T2, Replicative DNA helicase DnaB (Mycobacterium tuberculosis, UniProt P9WMR3); test: DnaB intein splicing inhibitors, dose response, biochemical, cell-free fluorescence (AID 449749); format: functional
T2 sequence (P9WMR3 whole entry): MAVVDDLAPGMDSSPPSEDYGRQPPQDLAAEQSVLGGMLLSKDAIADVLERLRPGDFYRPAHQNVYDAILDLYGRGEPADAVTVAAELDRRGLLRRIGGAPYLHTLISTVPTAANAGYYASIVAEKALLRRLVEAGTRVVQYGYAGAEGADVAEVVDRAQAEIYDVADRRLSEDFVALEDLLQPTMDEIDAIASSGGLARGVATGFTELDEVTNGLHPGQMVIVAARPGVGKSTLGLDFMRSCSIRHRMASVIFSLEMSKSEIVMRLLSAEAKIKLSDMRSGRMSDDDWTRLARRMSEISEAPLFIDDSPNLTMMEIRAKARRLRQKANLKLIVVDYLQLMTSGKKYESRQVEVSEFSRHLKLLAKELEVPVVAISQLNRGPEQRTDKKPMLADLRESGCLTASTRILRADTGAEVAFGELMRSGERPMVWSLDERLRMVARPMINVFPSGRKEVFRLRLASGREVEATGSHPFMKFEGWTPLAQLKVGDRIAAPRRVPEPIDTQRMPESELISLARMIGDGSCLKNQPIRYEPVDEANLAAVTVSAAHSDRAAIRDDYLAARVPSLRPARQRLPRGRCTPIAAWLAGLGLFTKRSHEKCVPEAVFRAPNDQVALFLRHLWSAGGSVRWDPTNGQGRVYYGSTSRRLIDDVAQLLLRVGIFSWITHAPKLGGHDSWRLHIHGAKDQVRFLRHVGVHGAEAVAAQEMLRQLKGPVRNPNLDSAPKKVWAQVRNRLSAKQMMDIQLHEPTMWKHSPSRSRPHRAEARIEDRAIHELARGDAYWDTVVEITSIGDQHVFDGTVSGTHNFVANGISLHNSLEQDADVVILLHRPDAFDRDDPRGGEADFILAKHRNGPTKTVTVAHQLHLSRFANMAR

[2] = Intein inhibitors as potential Tuberculosis drugs, a cytotoxicity screen. [Related pubchem assays (depositor defined):AID2221, AID2223, AID434968, AID435010, AID449749, AID449750, AID489010]; format: functional
[3] = biological target: T3, Short transient receptor potential channel 4 (Mus musculus, UniProt Q9QUQ5); test: mouse TRPC4 channel activators, dose response, cell-based, HEK293 TRPC4/mu-opioid, Fluo-4 calcium (AID 434937); format: functional
T3 sequence (Q9QUQ5 whole entry): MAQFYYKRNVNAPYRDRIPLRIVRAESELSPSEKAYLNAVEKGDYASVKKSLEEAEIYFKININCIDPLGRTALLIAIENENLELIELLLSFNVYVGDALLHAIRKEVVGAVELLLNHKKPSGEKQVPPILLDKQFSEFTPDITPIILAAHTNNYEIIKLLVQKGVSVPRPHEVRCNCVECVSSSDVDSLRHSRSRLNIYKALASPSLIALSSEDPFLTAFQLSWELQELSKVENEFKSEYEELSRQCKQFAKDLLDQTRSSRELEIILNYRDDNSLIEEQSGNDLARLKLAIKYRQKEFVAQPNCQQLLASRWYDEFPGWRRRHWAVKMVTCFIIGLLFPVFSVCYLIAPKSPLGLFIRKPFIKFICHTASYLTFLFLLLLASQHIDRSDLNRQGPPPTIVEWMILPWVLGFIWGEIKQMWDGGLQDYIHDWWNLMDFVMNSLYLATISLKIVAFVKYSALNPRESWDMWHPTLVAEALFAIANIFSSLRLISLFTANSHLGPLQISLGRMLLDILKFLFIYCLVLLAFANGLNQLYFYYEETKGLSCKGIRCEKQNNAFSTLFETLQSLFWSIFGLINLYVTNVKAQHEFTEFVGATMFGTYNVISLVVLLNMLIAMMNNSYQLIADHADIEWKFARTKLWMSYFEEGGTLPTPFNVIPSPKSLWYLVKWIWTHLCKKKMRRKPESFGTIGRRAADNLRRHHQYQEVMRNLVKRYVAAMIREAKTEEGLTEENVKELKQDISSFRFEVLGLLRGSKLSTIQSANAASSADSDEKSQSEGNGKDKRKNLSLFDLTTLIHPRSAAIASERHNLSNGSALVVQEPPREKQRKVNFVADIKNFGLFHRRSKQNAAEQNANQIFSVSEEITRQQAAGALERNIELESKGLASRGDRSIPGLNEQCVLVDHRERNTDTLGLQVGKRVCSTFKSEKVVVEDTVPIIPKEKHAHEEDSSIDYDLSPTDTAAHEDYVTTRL

[4] = biological target: T3, Short transient receptor potential channel 4; test: mouse TRPC4 channel inhibitors, dose response, cell-based, HEK293 TRPC4/mu-opioid, Fluo-4 calcium (AID 434942); format: functional;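 note: potency of inhibitors blocking the TRPC4 calcium response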
CAAX prenyl protease 2 [5] = biological target: T4, CAAX prenyl protease 2 (Homo sapiens, UniProt Q9Y256); test: human Rce1 protease inhibitors, dose response, biochemical, yeast membranes, quenched-peptide fluorescence, cherry-pick (AID 588849)
T4 sequence (Q9Y256 whole entry): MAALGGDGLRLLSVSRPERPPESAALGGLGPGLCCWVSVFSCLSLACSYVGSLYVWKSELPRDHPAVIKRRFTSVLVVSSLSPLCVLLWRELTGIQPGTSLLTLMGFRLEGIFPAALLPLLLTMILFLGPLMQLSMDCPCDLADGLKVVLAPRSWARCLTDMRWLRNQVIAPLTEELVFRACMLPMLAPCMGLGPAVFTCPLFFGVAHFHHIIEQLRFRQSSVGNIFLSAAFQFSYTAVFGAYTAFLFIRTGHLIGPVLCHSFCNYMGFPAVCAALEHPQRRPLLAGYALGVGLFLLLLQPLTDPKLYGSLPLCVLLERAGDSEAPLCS

CAAX prenyl protease 2 [6] = biological target: T5, CAAX prenyl protease 2 (Saccharomyces cerevisiae S288c, UniProt Q03530); format: biochemical
T5 sequence (Q03530 whole entry): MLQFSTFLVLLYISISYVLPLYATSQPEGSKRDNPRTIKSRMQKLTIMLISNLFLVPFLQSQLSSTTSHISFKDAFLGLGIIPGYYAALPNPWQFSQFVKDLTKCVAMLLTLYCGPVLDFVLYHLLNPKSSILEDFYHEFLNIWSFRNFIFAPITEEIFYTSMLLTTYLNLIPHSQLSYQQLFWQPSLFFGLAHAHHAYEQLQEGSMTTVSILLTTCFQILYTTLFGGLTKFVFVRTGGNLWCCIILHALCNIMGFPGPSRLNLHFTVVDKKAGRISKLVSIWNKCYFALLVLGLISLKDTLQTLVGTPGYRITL

Trypsin = Trypsin (Sus scrofa, UniProt P00761); test: porcine trypsin inhibitors, dose response, selectivity assay for Rce1 protease inhibitor project, biochemical, quenched peptide fluorescence, cherry-pick (AID 488789)
[7] = biological target: T6, Adenosylmethionine-8-amino-7-oxononanoate aminotransferase (Mycobacterium tuberculosis, UniProt P9WQ81); test: Mycobacterium tuberculosis BioA enzyme inhibitor Measured in Biochemical System Using Plate Reader - 2163-02_Inhibitor_Dose_CherryPick_Activity.; format: functional, Mycobacterium tuberculosis UT205
T6 sequence (P9WQ81 whole entry): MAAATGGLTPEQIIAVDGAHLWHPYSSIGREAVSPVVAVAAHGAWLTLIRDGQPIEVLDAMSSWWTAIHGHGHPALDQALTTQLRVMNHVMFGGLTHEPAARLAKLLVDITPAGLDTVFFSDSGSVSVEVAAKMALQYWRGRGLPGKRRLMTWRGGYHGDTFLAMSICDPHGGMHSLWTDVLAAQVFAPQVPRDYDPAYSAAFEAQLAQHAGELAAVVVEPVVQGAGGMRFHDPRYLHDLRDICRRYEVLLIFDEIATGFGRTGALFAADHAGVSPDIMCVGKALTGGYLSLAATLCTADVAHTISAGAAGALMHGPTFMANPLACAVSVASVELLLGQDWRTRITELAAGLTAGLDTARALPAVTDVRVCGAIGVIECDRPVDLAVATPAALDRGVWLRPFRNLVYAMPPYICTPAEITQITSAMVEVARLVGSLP

[8] = C. albicans growth with fluconazole, confirmation, fluorescence, retest (AID 2467); format: functional, cell-based
[9] = NIH-3T3 fibroblast cytotoxicity, dose response, cytotoxicity control, cell-based, fluorescence, Alamar Blue, secondary assay (AID 2327); format: functional;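 note: NIH-3T3 mouse fibroblasts cultured with fluconazole at 8 µg/mL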
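Throughout, for CC50: cells exposed to compound for 72 hours before luminescence readout.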

Sequence of Trypsin (P00761 whole entry): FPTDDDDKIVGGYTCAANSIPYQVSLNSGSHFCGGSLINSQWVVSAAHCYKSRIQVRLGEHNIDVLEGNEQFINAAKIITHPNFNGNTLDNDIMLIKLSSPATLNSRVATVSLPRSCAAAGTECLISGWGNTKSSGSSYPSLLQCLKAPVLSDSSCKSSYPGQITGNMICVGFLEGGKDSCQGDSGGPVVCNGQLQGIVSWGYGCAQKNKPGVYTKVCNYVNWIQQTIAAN

COC(=O)c1sc(-c2ccc(Cl)cc2)cc1NC(=O)/C=C/C(=O)O
active: EC50 (Protein RecA) 2.44 µM | AC50 [1] 4.02 µM | CC50 [2] 24.2 µM

OCC1(CC2CCCCO2)CCN(Cc2nc3ccccc3[nH]2)CC1 (stereo not drawn)
active: EC50 [3] 5.31 µM | EC50 [4] 3.35 µM

O=C(O)c1ccccc1NCCO
active: AC50 (CAAX prenyl protease 2 [5]) 5.81 µM | AC50 (CAAX prenyl protease 2 [6]) 16.1 µM | AC50 (Trypsin) 8.2 µM

O=[N+]([O-])c1ccc(C[n+]2c(-c3ccccc3)cc(-c3ccccc3)cc2-c2ccccc2)cc1.[O-][Cl+3]([O-])([O-])[O-]
active: AC50 [7] 4.55 µM | EC50 [8] 2.75 µM | AC50 (CAAX prenyl protease 2 [5]) 68.4 µM | EC50 [9] 23.7 µM | AC50 (CAAX prenyl protease 2 [6]) 81.6 µM
